From patent publication US10752581B2, “4-((2-hydroxy-3-methoxybenzyl)amino)benzenesulfonamide derivatives as potent and selective inhibitors of 12-lipoxygenase” (Eastern Virginia Medical School, priority 2013, dated 2020) come the findings set out here.

The structures appear in SMILES notation.

The nature of data set [1]: in vivo. The settings on record: male, CD1, mouse.
Data set [2] relates to human donor islet preparations. The data set can be described thus: Glucose-stimulated insulin secretion in human islets. The settings on record: cytokines (TNFα, IL-1β, IFNγ); 3 mM or 18 mM glucose. In kind it is cell-based. The method, then:
FIGS. 3D and 3E show results from glucose-stimulated insulin secretion in human donor islet preparations in response to 3 mM glucose (Low) or 18 mM glucose (High) for control (untreated) islets. […] FIGS. 3D and 3E represent results obtained in different human donor islet preparations.

Data set [3] has as its system washed human platelets. The data set can be described thus: PAR4-AP-induced platelet aggregation. The format is cell-based. The method, then: Blood was centrifuged at 200 g for 13 min at room temperature.
The nature of data set [4]: Parallel Artificial Membrane Permeability Assay (PAMPA). Particulars: PAMPA at pH 7.4. On the technique in general: In PAMPA a lipid-coated filter parts donor from acceptor wells.
In data set [5] the test system is FcγRIIa-stimulated platelets. Put plainly: PKC activation assay. The format is cell-based, human. The protocol:
FcγRIIa-mediated platelet activation: FcγRIIa-mediated platelet activation was initiated by two distinct models; either 1) FcγRIIa antibody cross-linking or 2) CD9 monoclonal antibody stimulation. To cross-link FcγRIIa, washed platelets were incubated with IV.3, an FcγRIIa mouse monoclonal antibody, for one minute followed by the addition of a goat anti-mouse (GAM) IgG antibody to cross-link FcγRIIa. The concentration of FcγRIIa cross-linking antibodies used for each experiment is indicated in the text. Alternatively, washed human platelets were stimulated with an anti-CD9 monoclonal antibody to activate FcγRIIa mediated signaling. Due to inter-individual variability in anti-CD9 response, a range of anti-CD9 concentration (0.25-1 μg/ml) was used to achieve an aggregation of EC80. In studies using the 12-LOX inhibitor (ML355), washed platelets were incubated with either ML355 (20 μM), or DMSO (vehicle control) for 15 minutes prior to FcγRIIa stimulation.
PKC activation assay: Washed platelets were stimulated by FcγRIIa antibody cross-linking under stirring conditions (1100 rpm) in an aggregometer at 37° C. Reactions were stopped by the addition of 5X× Laemmli sample buffer at the indicated times. As a positive control platelets were treated with PMA ([…]), a direct PKC agonist, for one minute. […]

For data set [6], the system named is FcγRIIa-stimulated platelets. The data set can be described thus: Syk phosphorylation after FcγRIIa cross-linking. In kind it is cell-based, human. Particulars: ML355 (20 μM). The method, then:
FIGS. 15A-15B show the role of 12-LOX in regulating the FcγRIIa signaling complex. Washed human platelets were pre-treated with ML355 (20 μM) or vehicle control prior to IV.3 and GAM stimulation. (FIG. 15A) Immunoprecipitation of FcγRIIa at 15, 30, and 60 seconds post crosslinking and measured for phosphorylation via Western blot. (FIG. 15B) Platelets were lysed following FcγRIIa cross-linking in the presence of ML355 or DMSO were immunoblotted for active (pY323) and total Syk.
Phosphorylation of FcγRIIa results in recruitment and activation of the tyrosine kinase Syk which is crucial for the formation of the LAT signalosome. The phosphorylation of Syk was measured following FcγRIIa stimulation of platelets in the presence or absence of ML355. The degree of Syk phosphorylation in response to FcγRIIa cross-linking in the presence of ML355 was varied in the subjects tested and may be due to inter-individual variability. […] To assess if 12-LOX regulates PLCy2 activation downstream of FcγRIIa, PLCy2 phosphorylation was measured in washed human platelets in the presence or absence of ML355. Platelets stimulated by FcγRIIa antibody cross-linking were phosphorylated within 15 seconds following stimulation. […]

By half-life is commonly meant how long it takes for the measured level to halve. Higher therefore signals slow loss.

`COc1cccc(CNc2ccc(S(=O)(=O)Nc3nc4ccccc4s3)cc2)c1O` [Compound 35, N-(benzo[d]thiazol-2-yl)-4-((2-hydroxy-3-methoxybenzyl)amino)benzenesulfonamide]: in data set [1], the half-life was 2.9 h. The “glucose-stimulated insulin secretion with cytokines” value in data set [2] is “Uncoupling of glucose-stimulated insulin secretion by cytokines is inhibited”. Further, the “PAR4-AP induced platelet aggregation (in words)” value in data set [3] is “significantly reduce PAR4-AP induced platelet aggregation”. In addition, the “platelet aggregation at 10 μM” value in data set [3] (10 μM, PAR4-AP) is given as “did not inhibit platelet aggregation”. For the same compound, the “permeability (1 × 10^−6 cm/s)” value in data set [4] is listed as 394^c 1 × 10^−6 cm/s. Moreover, the PKC activation result in data set [5] (ML355 (20 μM), 30 and 60 seconds, FcγRIIa cross-linking) is listed as “significant decrease in PKC activation”. In data set [5] (PMA, a direct PKC activator), the “PKC activation by PMA” value was “no difference in its ability to activate PKC”. In addition, the Syk phosphorylation entry in data set [6] is given as “attenuation of Syk phosphorylation in the presence of ML355 was minor”.
